Results as given in ChEMBL document CHEMBL1158844, “Two new isoflavones from Ceiba pentandra and their effect on cyclooxygenase-catalyzed prostaglandin biosynthesis” (J Nat Prod, 1998).

Columns and labels:
[1] = molecular target: T1, Prostaglandin G/H synthase 1 (Bos taurus, UniProt O62664); test: Inhibition of bovine seminal vesicle microsomal COX1-mediated prostaglandin production; assay type: microsomes
T1 sequence (O62664 whole entry): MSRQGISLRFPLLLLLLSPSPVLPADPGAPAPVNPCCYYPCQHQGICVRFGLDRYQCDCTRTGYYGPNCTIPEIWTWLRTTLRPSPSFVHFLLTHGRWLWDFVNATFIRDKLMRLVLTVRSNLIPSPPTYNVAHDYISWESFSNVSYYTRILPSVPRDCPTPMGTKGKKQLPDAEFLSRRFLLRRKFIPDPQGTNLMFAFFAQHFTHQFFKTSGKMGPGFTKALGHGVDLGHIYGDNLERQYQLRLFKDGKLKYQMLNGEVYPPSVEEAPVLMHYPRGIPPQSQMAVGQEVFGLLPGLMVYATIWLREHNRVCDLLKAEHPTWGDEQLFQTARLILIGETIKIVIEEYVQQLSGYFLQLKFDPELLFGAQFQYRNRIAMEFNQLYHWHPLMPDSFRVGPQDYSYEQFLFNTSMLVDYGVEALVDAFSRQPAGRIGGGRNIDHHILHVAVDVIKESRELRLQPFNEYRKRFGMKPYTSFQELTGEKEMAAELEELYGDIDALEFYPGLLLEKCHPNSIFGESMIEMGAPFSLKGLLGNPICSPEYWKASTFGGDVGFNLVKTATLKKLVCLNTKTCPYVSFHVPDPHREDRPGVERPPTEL

[2] = molecular target: T2, Prostaglandin G/H synthase 2 (Ovis aries, UniProt P79208); test: Inhibition of sheep placental cotyledons COX2-mediated prostaglandin production
T2 sequence (P79208 whole entry): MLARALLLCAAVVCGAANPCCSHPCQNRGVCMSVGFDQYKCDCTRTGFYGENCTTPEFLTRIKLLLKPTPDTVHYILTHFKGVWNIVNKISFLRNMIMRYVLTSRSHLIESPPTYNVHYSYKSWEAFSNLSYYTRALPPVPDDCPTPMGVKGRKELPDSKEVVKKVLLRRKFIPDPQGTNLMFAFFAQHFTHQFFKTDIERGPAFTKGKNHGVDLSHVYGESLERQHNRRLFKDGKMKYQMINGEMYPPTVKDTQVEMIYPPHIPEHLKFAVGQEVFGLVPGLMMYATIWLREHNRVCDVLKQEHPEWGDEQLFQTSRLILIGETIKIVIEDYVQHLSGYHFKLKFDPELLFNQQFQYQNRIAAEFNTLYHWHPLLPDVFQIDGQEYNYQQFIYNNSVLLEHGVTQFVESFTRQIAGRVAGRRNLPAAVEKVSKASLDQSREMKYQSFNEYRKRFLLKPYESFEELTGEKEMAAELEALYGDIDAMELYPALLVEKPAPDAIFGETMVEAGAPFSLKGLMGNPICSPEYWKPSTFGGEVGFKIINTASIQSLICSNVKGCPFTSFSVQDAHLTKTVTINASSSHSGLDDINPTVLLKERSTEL

| Structure (SMILES) | IC50 [1] | IC50 [2] |
| --- | --- | --- |
| COc1cc(O)c2c(=O)c(-c3cc(OC)c(OC)c(O[C@@H]4O[C@H](CO)[C@@H](O)[C@H](O)[C@H]4O)c3)coc2c1 | 381 µM | 1200 µM |
| COc1cc(O)c2c(=O)c(-c3cc(O)c(OC)c(OC)c3)coc2c1 | 97 µM | 900 µM |
| Oc1cc(O)c2c(c1)O[C@H](c1ccc(O)c(O)c1)[C@@H](O)C2 [CIANIDANOL] | 80 µM |  |
